{"source": "patent US20200276186A1", "about": "“USE OF […] TREATING COCAINE ADDICTION, PRURITIS, AND SEIZURE DISORDERS” (PHOENIX […], INC., priority 2017, published 2020)", "system": "patient with atopic dermatitis", "test": "Topical treatment of itching in atopic dermatitis", "assay_type": "in vivo", "conditions": "human, indomethacin cream 7.5 mg/g at 75 μg/cm^2", "experimental": "An aqueous solution (10-100 μg/ml) of a compound of Formula (I) is applied topically to the skin lesions on the arms or legs of a patient with atopic dermatitis which had caused severe itching (ranked as “+++” by the patient prior to treatment). The drug solution is applied on five spots with a volume of about 50 μl per 10 cm^2, which was equivalent to a topical dose of […]. As a control, indomethacin cream (concentration of 7.5 mg/g) applied at a dose of 75 μg/cm^2 in the same manner. Itching intensity is evaluated immediately after treatment, 5 minutes after treatment and at hourly time points for several hours following treatment. […] Itch relief typically continues for several hours following treatment.", "data": [{"smiles": "COc1ccc2c(c1)c(CC(=O)O)c(C)n2C(=O)c1ccc(Cl)cc1", "note": "[indomethecin, indomethacin]", "values": [{"measurement": "Effect on itch (control)", "value": "reduces but fails to eliminate itch"}]}]}
